The structures appear in SMILES notation. Bounds are passed on as bounds.

A word on the IC50: it is the concentration at which inhibition is half-maximal. What is called CC50 is the concentration giving 50% cytotoxicity. The term solubility denotes the dissolved amount per volume that the medium holds. One may read the hepatocyte CLint as the capacity of the preparation to metabolise the compound, expressed as a volume cleared per time. In general, share remaining refers to the share of the starting amount still present when the sample was taken. The low end stands for a greater loss, the high end for greater stability.

Series [1] deals with L. infantum promastigotes. Briefly: microbe, parasite or virus in culture. The series is classed as cell-based, Leishmania infantum. As to conditions: L. infantum promastigotes; for IC50: in vitro. As for the experimental part: L. infantum (MHOM/ES/2016/CATB101) promastigotes were maintained at 26°C in complete Schneider’s medium (Schneider’s insect medium supplemented with 10% FBS, 25 µg/mL gentamycin, 1% penicillin-streptomycin, and 1% sterile human urine, pH 6.7). For growth inhibition assays, promastigotes were used in the logarithmic growth phase, whereas for the infection of macrophages and generation of amastigotes they were used in the stationary phase. Axenic amastigotes were obtained following established protocols ([40], [57][–][59]); briefly, 1 × 10^7 promastigotes/mL in stationary phase were cultured in Schneider’s insect medium supplemented with 20% FBS, 25 µg/mL gentamycin, and 3.9 g/L of 2-(N-morpholino)ethanesulfonic acid, at pH 5.4 and 37°C. After 48 h, the typical rounded morphology of axenic amastigotes and their flagellum shortening could be observed. This culture was used within a week after its preparation.
In 96-well microtiter plates (Nunclon Delta surface; Thermo Fisher Scientific Inc.), serial dilutions (1:2) of the drugs or peptides were performed, either free or loaded in nanoformulations, in 100 µL of complete Schneider’s medium, to which one volume of 2 × 10^6 logarithmic growth-phase L. infantum promastigotes/mL in the same buffer was added. After 48 h, resazurin sodium salt was incorporated at a final concentration of 0.00125% and the plates were incubated at 26°C for another 24 h, when fluorescence from resorufin was measured as described above.

A short description of series [2]: in vitro. The following applies: human umbilical vein endothelial cells, 48 h. In kind it is cell-based. As for the experimental part:
Human umbilical vein endothelial cells were maintained in M-199 supplemented with 10% fetal bovine serum (FBS) and 1% penicillin-streptomycin at 37°C, 5% CO2, and seeded in 96-well plates at a density of 50,000 cells/mL. After allowing cell adherence for 24 h, the medium was removed, and drugs or nanoformulations were added in M-199 supplemented with 1% penicillin-streptomycin. Plates were incubated for 48 h, and then, the medium in each well was replaced by 100 µL of M-199 containing penicillin-streptomycin and 0.00125% resazurin sodium salt (Sigma-Aldrich Corporation). Plates were incubated for 4 h, and resorufin fluorescence emission was measured (λex/em: 535/590 nm) in a Tecan Infinite 200 PRO equipment (Tecan Trading AG).

The nature of series [3]: Solubility screen assay (nephelometry). The series is classed as physicochemical. The following applies: PBS with 1% DMSO; read-out: Aqueous solubility. As for the experimental part:
The stock solutions (10^‒2 M) of the assayed compounds were diluted to decreased molarity, from 300 μM to 0.1 µM, in a 384-well transparent plate (Greiner Bio-One, Madrid, Spain) with DMSO:PBS (1:99 vol/vol). After 2 h of incubation at 37°C, the plate was read in a NEPHELOstar Plus nephelometer (BMG LABTECH GmbH, Ortenberg, Germany) at 635 nm. The results were adjusted to a segmented regression to obtain the maximum concentration at which the compounds were soluble.

The nature of series [4]: Human hepatocyte stability assay. In kind it is in vitro ADME. As to conditions: 37°C. As for the experimental part:
A vial of human hepatocytes (100 donor pool HCP100.H15/Lot: 2010012; XenoTech, Kansas City, KS, US) was removed from the liquid nitrogen tank and immersed into a water bath. When only a small ice crystal remained, the cell suspension was transferred to a tube with the preheated suspension medium (OptiThaw hepatocyte medium, K8000; XenoTech). After a brief centrifugation at 100 × g for 5 min, hepatocytes were gently resuspended with incubation medium (OptiIncubate hepatocyte medium, K8400; XenoTech) and counted, and viability was determined using trypan blue staining. One-micromolar compounds were incubated at 37°C and 5% CO2 in the presence of 0.5 × 10^6 hepatocytes in a 500-µL incubation volume. Aliquots were taken, and reactions were terminated with ACN at each of the six sampling time points (0, 15, 30, 60, 90, and 120 min). The samples were centrifuged, and the remaining compound was determined by UPLC-MS/MS analysis as above. Intrinsic clearance was calculated from the logarithm of the remaining compound at each of the times evaluated.

The test system of series [5] is L. major promastigotes. Briefly: Luciferase assay for free intracellular ATP levels. In kind it is cell-based, Leishmania major. As to conditions: luciferase-expressing L. major promastigotes, DMNPE-luciferin. As for the experimental part: The process described in reference ([62]) was followed. Briefly, L. major promastigotes (Friendlin strain) were transfected with the pLEXSY-hyg2.1 expression vector (Jena Bioscience, Jena, Germany) containing a cytoplasmic form of firefly luciferase mutated at its C-terminal tripeptide to prevent its import into the glycosome. Promastigotes were grown in Roswell Park Memorial Institute 1640 medium (RPMI) supplemented with 10% FBS, 2 mM L-glutamine, 1,000 U/mL penicillin/streptomycin (Gibco, Billings, MT, US), and 100 µg/mL hygromycin (InvivoGen, San Diego, CA, US) at 26°C. To assess variation in the intracellular concentration of free ATP, parasites were harvested at the late exponential phase of growth. After two washes with Hanks balanced buffer, parasites were resuspended in the same buffer supplemented with 10 mM D-glucose at 2.2 × 10^7 parasites/mL. After the addition of DMNPE-caged D-luciferin (GoldBio, St. Louis, MO, US) at 50 µM final concentration, the parasite suspension was aliquoted (90 µL/well) into a black 96-microwell plate (Nunc A/S, Roskilde, Denmark), and luminescence readout was monitored in a POLARstar Galaxy microplate reader (BMG LABTECH GmbH) with a luminescence setup. Once the luminescence reached a plateau, 10 µL of a YAT2150 solution at 10× fold its final concentration was added (t0) and the luminescence value at this point was considered as 100%. […]

The test system of series [6] is P. falciparum. Also on record: method as in PMID 36271358. As to conditions: read-out: IC50 in in vitro P. falciparum cultures; cited from earlier work.

As to `CCN(CC)c1ccc(/C=C/c2cc[n+](CCCCCCCCCC[n+]3ccc(/C=C/c4ccc(N(CC)CC)cc4)c(C)c3)cc2C)cc1` [YAT2150], in series [1], the “in vitro IC10” value was 150 nM, the “in vitro IC40” value is 300 nM and the IC50 is roughly 500 nM. Moreover, the IC50 in series [1] (Leishmania infantum) is roughly 520 nM. In addition, the CC50 in series [2] is 3400 ± 500 nM. Besides, the solubility at 2 h in series [3] was found to be 8.5 µM. The hepatocyte CLint at 1 µM in series [4] (hepatocytes (cryopreserved, 100 donor pool)) came to 2.5 µL/min/1e6 cells. In addition, the “t1/2, hepatocyte stability” value in series [4] (human hepatocytes) worked out at 4.622 h. In series [4] (human, hepatocytes (cryopreserved, 100 donor pool), after 2 h), the amount remaining at 2 h, 1 µM amounted to 70%. In series [4] (human, hepatocytes (cryopreserved, 100 donor pool), read-out: t1/2, hepatocyte stability), the half-life at 1 µM worked out at 4.62 h. For the same compound, the “concentration beyond which a concentration-dependent reduction in luminescence (ATP) was observed” value in series [5] is greater than 2 µM. Moreover, the IC50 in series [6] is roughly 90 nM.

Values taken from PMC10916400, “Effect of the aggregated protein dye YAT2150 on Leishmania parasite viability” (Antimicrobial Agents and Chemotherapy, 2024).
